These results are taken from publication PMC5424327, “Boosting LPMO-driven lignocellulose degradation by polyphenol oxidase-activated lignin building blocks” (Biotechnology for Biofuels, 2017).

This experiment concerns the target T1, MtPPO7 (Thermothelomyces thermophilus, UniProt A0A1C9CXH9).
T1 construct: secreted enzyme over-expressed in homologous M. thermophila C1 (low protease/low (hemi-)cellulase strain), fractionated from culture broth; KX772412 is printed as 'UniProt' but has GenBank format
T1 sequence (A0A1C9CXH9 19-420): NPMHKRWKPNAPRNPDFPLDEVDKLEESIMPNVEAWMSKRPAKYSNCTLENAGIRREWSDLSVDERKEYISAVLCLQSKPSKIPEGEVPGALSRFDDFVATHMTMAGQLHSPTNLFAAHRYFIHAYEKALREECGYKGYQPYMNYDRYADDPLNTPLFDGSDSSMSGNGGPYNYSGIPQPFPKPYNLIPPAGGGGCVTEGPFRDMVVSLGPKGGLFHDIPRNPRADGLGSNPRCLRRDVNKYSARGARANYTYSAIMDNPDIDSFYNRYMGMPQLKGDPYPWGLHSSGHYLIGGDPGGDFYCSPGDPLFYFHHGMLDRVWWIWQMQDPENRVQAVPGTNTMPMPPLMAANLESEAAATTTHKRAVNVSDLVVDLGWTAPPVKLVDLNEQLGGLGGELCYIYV
As to the kind of experiment: UHPLC-UV-MSn of substrate conversion. The format is biochemical. The conditions noted are these: 2 mM substrate, 5.0 ug/mL enzyme, 50 mM potassium phosphate pH 6.0, 2.5 uM CuCl2, 50 °C, 24 h; ortho-hydroxylation.

In the case of `COc1ccccc1O` [compound 9, Guaiacol], the “conversion (%)” value is “The conversion of guaiacol by MtPPO7 resulted in the initial formation of 3-methoxycatechol”.
